Where two headings read alike, the source gives them in different places. Values belong to the compound of their own block, whether it stands above or below them.
Experiments:
[1] = test system: human liver organoid (HLO)
[2] = test system: human liver organoid (HLO); settings: 72 h
[3] = test system: lipotoxic HLO; experiment: Viability in lipotoxic; format: cell-based
[4] = test system: CYP1A2; experiment: CYP1A2 induction in HLO
[5] = Organoid viability after treatment with training compounds; settings: human, human liver organoids (HLO)
[6] = test system: human liver organoid (HLO); experiment: Mitochondrial membrane potential; settings: treatment for 24h, multiple doses
[7] = test system: CYP2C9*2 carrier and non-carrier HLO; format: cell-based, human
[8] = test system: BSEP; experiment: CLF bile acid transport in HLO; format: cell-based, human; settings: normal HLO, viable dosing (100 μM, 200 μM)

SMILES: Cc1c(C)c2c(c(C)c1O)CCC(C)(COc1ccc(CC3SC(=O)NC3=O)cc1)O2 (stereo not drawn) [Troglitazone]
cell viability at 72 hours relative to TOL, DICLO and BOS [1]: significantly lowered cell viability

SMILES: COc1ccc2c(c1)c(CC(=O)O)c(C)n2C(=O)c1ccc(Cl)cc1 [Indomethacin]
concentration at which induced toxicity was detected in cytotoxicity assay [2]: 10 µM

SMILES: CC(=O)N[C@@H](CS)C(=O)O [NAC, N-acetylcysteine]
rescue of cell viability ([3]; lipotoxic HLO treated with Troglitazone): cell viability was significantly improved

SMILES: CC(c1cc2ccccc2s1)N(O)C(N)=O (stereo not drawn) [Zileuton]
concentration at which induced toxicity was detected in cytotoxicity assay [2]: 100 µM

SMILES: CCc1ccc(CCOc2ccc(CC3SC(=O)NC3=O)cc2)nc1 (stereo not drawn) [Pioglitazone]
effect on viability ([3]; 200 μM, 24h, HLO with/without lipotoxic condition): did not affect viability

CYP1A2 induction response [4]: major CYP induction responses in HLO
SMILES: COc1ccc2[nH]c([S+]([O-])Cc3ncc(C)c(OC)c3C)nc2c1 (stereo not drawn) [Omeprazol, Omeprazole]

SMILES: CCN(CC)C(=O)/C(C#N)=C/c1cc(O)c(O)c([N+](=O)[O-])c1 [Entacapone]
viability at 24 h, 130 µM [5]: 85%
viability at 72 h, 130 µM [5]: 64%
increase in MMP [6]: increases in MMP were not clearly observed

Positive rate of impaired CLF excretion ([7]; CC genotype (CYP2C9 enzyme activity normal) HLO): 17.1 % of positive
Positive rate of impaired CLF excretion ([7]; CT genotype (CYP2C9*2, activity intermediate) HLO): 70.8 % of positive
SMILES: COc1ccccc1Oc1c(NS(=O)(=O)c2ccc(C(C)(C)C)cc2)nc(-c2ncccn2)nc1OCCO [Bosentan]

SMILES: Cc1cc2c(cc1CC(=O)c1sccc1S(=O)(=O)Nc1onc(C)c1Cl)OCO2 [sitaxentan]
CLF transport [8]: inhibited CLF transport

Source: paper PMC7878295 (Gastroenterology, 2020)
